Data set [1] concerns human colon carcinoma HT29 cell line. Put plainly: MTT growth inhibitory assay, HT29. It is filed as cell-based. A general note: Formazan colour is commonly taken as a measure of viable cells.
Experimental: (§1) One of the growth inhibitory assays is the MTT assay. Cells (1000-1500 cells/well) are seeded in a 96-well micro culture plate in a total volume of 100 μl/well. After overnight incubation in a humidified incubator at 37° C. with 5% CO2-95% air, chemotherapeutic drug solutions diluted with culture medium at various concentrations are added in the amount of 100 μl to each well. The plates are placed in a humidified incubator at 37° C. with 5% CO2-95% air for 7-10 days. The plates are then centrifuged briefly and 100 μl of the growth medium is removed. Cell cultures are incubated with 50 μl of MTT [3-(4,5-dimethylthiazol-2-yl)-2,5-diphenyl-tetrazolium bromide] reagent (1 mg/ml in Dulbecco's phosphate-buffered saline) for 4 hr at 37° C. The resultant purple formazan precipitate is solubilized with 200 μl of 0.04 N HCl in isopropanol. Absorbance is measured at a wavelength of 595 nm and at a reference wavelength of 655 nm using a Bio-Rad Model 3550 Microplate Reader. Preferably, all tests are run in duplicate for each dose level.
(§2) The EZED50 computer program estimates the concentration of agent that inhibits cell growth by 50% as compared to the control cells. This is termed the IC50 and is determined by curve fitting test data using the following four logistic equation. [formula]
(§3) Inhibitory assay testing is also used to determine enhanced therapeutic effects from combining A3 receptor antagonists with other tumor inhibiting agents. The inhibitory cell growth assays are run with and without selected concentrations of A3 receptor antagonists. An enhanced therapeutic effect is present when the IC50 of the tumor inhibiting agent is lower with the A3 receptor antagonist.
(§4) Quantitatively, the enhancement factor (EF) is calculated by dividing the IC50 value of the tumor inhibiting agent for a tumor cell line by the IC50 value of the agent with A3 receptor antagonist for the same cell line: [formula]
Another data set deals with T1, rA1 adenosine receptor (Rattus norvegicus, UniProt P25099).
T1 sequence (P25099 1-326): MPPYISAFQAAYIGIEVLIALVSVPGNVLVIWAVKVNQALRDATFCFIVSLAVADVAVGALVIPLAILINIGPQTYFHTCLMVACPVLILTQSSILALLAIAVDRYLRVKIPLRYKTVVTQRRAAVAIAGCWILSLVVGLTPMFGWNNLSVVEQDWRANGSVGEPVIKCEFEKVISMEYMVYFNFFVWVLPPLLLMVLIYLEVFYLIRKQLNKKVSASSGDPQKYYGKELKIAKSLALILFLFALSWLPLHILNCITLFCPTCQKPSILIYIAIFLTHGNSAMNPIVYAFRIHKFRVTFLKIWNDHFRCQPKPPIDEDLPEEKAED
The data set can be described thus: Binding affinity at rA1 adenosine receptor.

Another data set has as its target rA2A adenosine receptor (Rattus norvegicus, UniProt P30543). The data set can be described thus: Binding affinity at rA2A adenosine receptor.
Data set [2] has as its system human pancreatic cancer Panc-1. The data set can be described thus: MTT growth inhibitory assay, Panc-1. It is filed as cell-based.
Experimental: as §1, §2, §3, §4
Data set [3] relates to human lung carcinoma SKMES. The data set can be described thus: MTT growth inhibitory assay, SKMES. It is filed as cell-based.
Experimental: as §1, §2, §3, §4
Data set [4] concerns the target T2, P-gp drug efflux activity in HeL023 cells (Homo sapiens, UniProt P08183).
T2 construct: nearly all (100±1%) the cells expressing high level of functional P-gp; endogenous in cells; host or cells: HeL023 human erythroleukemia cells
Put plainly: Rhodamine 123 efflux assay, HeL023 cells. Format: cell-based. Particulars: Rh123 efflux, concentrations of Table 11 (MRE3008F20 10 μM). As for the experimental part: 5×10^5 cells from each subline were loaded with 50 ng/ml of rhodamine 123 for 30 minutes at 37° C. in medium. The cells were washed and resuspended in dye-staining agent free medium for 3 hours at 37° C. to allow rhodamine 123 efflux. The cells were then washed twice and the fluorescence of intracellular rhodamine 123 were analysed with Flow cytometer (residual fluorescence FRES). The fluorescence was compared with loaded cells maintained at 4° C. to prevent drug export (maximal fluorescence FMAX). […] Cells from each subline that were not being exposed to rhodamine 123 were used as negative controls.
Rhodamine 123 (Rh123) retention, a P-gp functional assay, was studied in all cell lines. This assay was performed by incubating cells with Rh123 and determining Rh123 accumulation by measuring its fluorescence. The maximum load of Rh123 (FMAX) was quantified at the end of treatment harvesting the cells and storing them at 4° C. to prevent any active Rh123 efflux . The P-gp drug efflux was allowed incubating Rh123-loaded cells in fresh new medium Rh123-free for 3 hours at 37° C. After this incubation, residual fluorescence (FRES) was measured and compared to FMAX.

Data set [5] concerns human melanoma A375 cell line. Put plainly: MTT growth inhibitory assay, A375. It is filed as cell-based.
Experimental: as §1, §2, §3, §4
Another data set deals with A375 cells. The data set can be described thus: Flow cytometry (PI) G2/M accumulation and sub-G1 apoptosis, A375. Format: cell-based, human. To be noted: A375, vindesine 1 nM, G2/M accumulation dose response curve, read-out: SEC50 (dose inducing 50% of the enhancing activity to vindesine). (In general: In flow cytometry, cells or beads pass a laser one at a time.)
Data set [6] has as its target T3, human A3 adenosine receptor (Homo sapiens, UniProt P0DMS8).
T3 sequence (P0DMS8 1-318): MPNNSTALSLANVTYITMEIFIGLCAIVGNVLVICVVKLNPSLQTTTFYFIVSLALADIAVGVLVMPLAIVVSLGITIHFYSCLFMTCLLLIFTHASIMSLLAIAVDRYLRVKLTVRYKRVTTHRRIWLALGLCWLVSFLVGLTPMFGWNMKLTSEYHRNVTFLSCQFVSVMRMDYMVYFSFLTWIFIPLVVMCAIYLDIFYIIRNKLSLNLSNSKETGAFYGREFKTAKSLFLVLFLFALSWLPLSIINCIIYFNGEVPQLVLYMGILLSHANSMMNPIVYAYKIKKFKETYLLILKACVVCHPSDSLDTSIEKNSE
Particulars: read-out: Ki (binding affinity at human A3 adenosine receptor); A375 cells.

Setting [7] is: Panc-1, A3 antagonist 0.5 μg/ml.

Molecules are shown by their SMILES. In brackets after ≈: the same amount, converted by molar mass. Like-named read-outs stand apart in the source and are kept apart here.

T2 sequence (P08183 whole entry): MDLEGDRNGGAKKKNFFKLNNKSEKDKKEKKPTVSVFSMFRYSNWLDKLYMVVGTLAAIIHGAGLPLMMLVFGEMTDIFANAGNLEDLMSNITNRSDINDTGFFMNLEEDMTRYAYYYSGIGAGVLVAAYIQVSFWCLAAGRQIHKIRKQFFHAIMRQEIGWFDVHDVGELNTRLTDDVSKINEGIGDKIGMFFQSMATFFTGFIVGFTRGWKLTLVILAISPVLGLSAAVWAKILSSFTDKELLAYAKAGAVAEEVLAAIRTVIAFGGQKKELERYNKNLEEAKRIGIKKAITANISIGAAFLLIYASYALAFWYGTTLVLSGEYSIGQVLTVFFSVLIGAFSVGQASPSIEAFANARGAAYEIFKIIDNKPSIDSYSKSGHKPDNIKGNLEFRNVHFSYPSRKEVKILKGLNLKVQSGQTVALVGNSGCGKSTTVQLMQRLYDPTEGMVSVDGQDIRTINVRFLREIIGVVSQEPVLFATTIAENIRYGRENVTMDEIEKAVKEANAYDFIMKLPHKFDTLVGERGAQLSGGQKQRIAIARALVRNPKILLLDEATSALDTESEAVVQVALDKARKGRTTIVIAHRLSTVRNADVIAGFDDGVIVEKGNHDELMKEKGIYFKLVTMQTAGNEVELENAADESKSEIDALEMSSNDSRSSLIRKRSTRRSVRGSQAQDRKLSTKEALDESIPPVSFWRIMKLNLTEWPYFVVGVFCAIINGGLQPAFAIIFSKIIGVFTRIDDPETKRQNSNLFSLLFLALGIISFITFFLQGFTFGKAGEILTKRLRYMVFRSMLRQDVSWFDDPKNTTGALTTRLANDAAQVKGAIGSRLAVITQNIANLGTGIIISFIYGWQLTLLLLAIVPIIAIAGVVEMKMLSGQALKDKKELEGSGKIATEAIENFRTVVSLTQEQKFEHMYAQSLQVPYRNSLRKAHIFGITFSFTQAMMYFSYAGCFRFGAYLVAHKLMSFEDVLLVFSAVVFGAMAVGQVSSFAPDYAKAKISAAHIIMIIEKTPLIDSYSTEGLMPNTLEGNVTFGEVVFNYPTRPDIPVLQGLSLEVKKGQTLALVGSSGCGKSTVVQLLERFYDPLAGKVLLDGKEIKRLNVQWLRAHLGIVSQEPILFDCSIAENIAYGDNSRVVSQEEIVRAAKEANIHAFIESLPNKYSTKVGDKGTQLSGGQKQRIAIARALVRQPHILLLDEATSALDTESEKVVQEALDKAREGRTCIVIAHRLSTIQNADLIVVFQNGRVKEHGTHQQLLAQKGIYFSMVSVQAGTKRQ
Sequence of rA2A adenosine receptor (P30543 whole entry): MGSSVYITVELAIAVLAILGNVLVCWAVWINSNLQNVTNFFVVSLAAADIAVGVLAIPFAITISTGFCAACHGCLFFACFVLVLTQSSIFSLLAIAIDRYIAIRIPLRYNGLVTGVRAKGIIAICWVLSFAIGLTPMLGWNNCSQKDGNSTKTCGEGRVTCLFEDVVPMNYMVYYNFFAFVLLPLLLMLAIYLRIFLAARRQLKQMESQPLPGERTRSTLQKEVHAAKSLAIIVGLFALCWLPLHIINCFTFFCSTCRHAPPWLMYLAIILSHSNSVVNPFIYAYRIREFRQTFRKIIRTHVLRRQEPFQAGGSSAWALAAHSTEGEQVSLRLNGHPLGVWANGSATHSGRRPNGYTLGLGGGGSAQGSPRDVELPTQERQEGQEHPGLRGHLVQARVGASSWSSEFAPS

In general, IC50 refers to the concentration that gives 50% inhibition. For orientation: Ki means the equilibrium dissociation constant of an inhibitor or competing ligand from its target. Broadly, the inhibition is the relative decrease from the control value, in per cent. Turning to `CCN(CC)c1ccc(NC(=O)Nc2nc3nn(C)cc3c3nc(-c4ccco4)nn23)cc1` [IL-10, N-1-(4-diethylamino-phenyl)-N′-5-[8-methyl-2-(2-furyl)-pyrazolo[4 ,3-e]1,2,4-triazolo[1,5-c]pyrimidine]-urea], the “Enhancement Factor for docetaxel” value is recorded as 5.5 in [1] (HT29, A3 antagonist 0.5 μg/ml); 1.4 in data set [2] (setting [7]); 2.8 in [3] (SKMES, A3 antagonist 0.5 μg/ml); 8.4 in [5] (A375, A3 antagonist 0.5 μg/ml); 2.9 in data set [5] (A375, A3 antagonist 5 μg/ml). Also, in data set [1] (HT29, A3 antagonist 0.5 μg/ml), the “Enhancement Factor for doxorubicin” value is 1.5. In data set [1] (HT29, A3 antagonist 0.5 μg/ml), the “Enhancement Factor for irinotecan HCl” value was determined as 1.2. Moreover, the “Enhancement Factor for paclitaxel” value in data set [1] (HT29, A3 antagonist 0.5 μg/ml) came to 2.5; in data set [2] (setting [7]) it was 1.7; in [3] (SKMES, A3 antagonist 0.5 μg/ml), 2.8; in data set [5] (A375, A3 antagonist 0.5 μg/ml) it was 3.7; in [5] (A375, A3 antagonist 5 μg/ml, paclitaxel 0.0001-0.05 μg/ml) it was 8.8; in [5] (A375, A3 antagonist 5 μg/ml, paclitaxel 0.0002-0.1 μg/ml), 9.2. For the same compound, the concentration for half-maximal inhibition (IC50) in data set [1] (HT-29, Human Colon Carcinoma HT29, read-out: IC50 growth inhibition, agent used separately) amounted to 10 ± 0.7 mg/L (≈ 22.4 µM); in data set [2] (Human Pancreatic Cancer Panc-1, read-out: IC50 growth inhibition, agent used separately), 3.9 ± 3.3 mg/L (≈ 8.75 µM); in data set [3] (Human Lung Carcinoma SKMES, read-out: IC50 growth inhibition, agent used separately) it was 5.9 ± 0.3 mg/L (≈ 13.2 µM); in data set [5] (Homo sapiens, A-375, Human Melanoma A375, read-out: IC50 growth inhibition, agent used separately), 11.9 ± 0.4 mg/L (≈ 26.7 µM). For the same compound, the Ki at rA1 adenosine receptor came out at 0.58 µM; on rA2A adenosine receptor, 0.523 µM. In addition, in [3] (SKMES, A3 antagonist 0.5 μg/ml), the “Enhancement Factor for irinotecan HCL” value is on record as 1.7. In data set [3] (SKMES, A3 antagonist 0.5 μg/ml), the “Enhancement Factor for vinblastine” value came to 1.4. Moreover, in data set [4], the “inhibition of P-gp activity (in words)” value was “strong inhibitors of P-gp activity”. Moreover, the inhibition at 5 µg/mL in data set [5] (Homo sapiens, A-375, A375, 5 μg/ml, read-out: growth inhibition in the presence of A3 antagonist alone) was in the range of 30 to 45%. Besides, the EC50 in the data set with A375 cells (Homo sapiens, A-375) turned out to be 0.97 ± 0.1 µM.
Consider `CCCCn1cc2c(nc(NC(=O)Nc3ccccc3)n3nc(-c4ccco4)nc23)n1` [MRE 3062F20, 5-N-(4-phenyl-carbamoyl)amino-8-butyl-2 (2furyl)-pyrazolo-[4,3e]-1,2,4triazolo[1,5-c]pyrimidine], for which the “inhibition of P-gp activity (in words)” value in [4] was “strong inhibitors of P-gp activity”. Further, the Ki in data set [6] was found to be 0.0023 ± 0.0002 µM. The EC50 with A375 cells is 0.43 ± 0.04 µM.

The values are drawn from patent US20040067932A1 (priority 2002, published 2004).
